Residues, ends and D or L forms follow the SMILES beside them.
Legend:
[1] = safety testing of cosmetic grade cytomodulin as a topically administered ingredient
Source text: In particular, the heptapeptide TGF-β mimic, A-N-V-A-E-N-A (SEQ ID NO: 1), termed “cytomodulin,” has been examined and tested as an ingredient in compositions with the potential for improving the condition of skin upon application; a cosmetic grade cytomodulin was first synthesized according to U.S. Pat. No. 5,661,127 and subsequently tested to ensure both its efficacy and safety as a topically administered ingredient.

[2] = test system: TGF-β; experiment: TGF-β like activity of cytomodulin analogs; conditions: compared with TGF-β and cytomodulin
Source text: As first introduced in the present inventor's U.S. Pat. No. 5,780,436, which is hereby incorporated by reference in its entirety, using cytomudulin as a guide, two initial cytomodulin analogs, L-I-A-E-A-K (SEQ ID NO: 2) and L-I-A-P-E-A (SEQ ID NO: 3) were designed, synthesized, and tested. In both peptides, -V-A-, was replaced by -I-A- and the first two N-terminal amino acid sequence of cytomodulin was replaced with leucine. In SEQ ID NO: 2, glutamic acid is at position i+3 since it is the first side-chain after the β-bend structure. In SEQ ID NO: 3, proline is at position i+3.
Analogs of SEQ ID NO: 2 and SEQ ID NO: 3 were made to further probe the sequence requirements for TGF-β like activity. To that end, the following peptides were made:
SEQ ID NOs 4-6, which are minor variants of SEQ ID NO: 2, mimicked the biological activities of TGF-β and cytomodulin. […] Alternatively, all peptides with the sequences represented by SEQ ID NOs: 9-16 mimicked at least one biological activity of TGF-β to some degree.

For `CC(C)[C@H](NC(=O)[C@H](CC(N)=O)NC(=O)[C@H](C)N)C(=O)N[C@@H](C)C(=O)N[C@@H](CCC(=O)O)C(=O)N[C@@H](CC(N)=O)C(=O)N[C@@H](C)C(=O)O` [cytomodulin, A-N-V-A-E-N-A] (H-ANVAENA-OH), the toxicity [1] was “completely non-toxic”.

With “L-I-A-E-A-K (LIAEAK; TGF-beta mimic) [SEQ ID NO: 2, cytomodulin analog]” the TGF-β like activity [2] was “at least as much TGF-β like activity as cytomodulin”.

With “L-I-A-P-E-A (LIAPEA; TGF-beta mimic) [SEQ ID NO: 3, cytomodulin analog]” the TGF-β like activity [2] was “at least as much TGF-β like activity as cytomodulin”.

From patent US20160151270A1, “Peptide-Based Compositions and Methods of Use” (Geoffrey Brooks Consultants LLC, priority 2014, published 2016)
